# Reference: article PMC7259758 (PLoS ONE, 2020)
# Read-outs that look alike come from different tables or passages of the source.
# What was measured:
# DYRK1A(h) = target: T1, DYRK1A(h) (Homo sapiens, UniProt Q13627); test: Radiometric protein kinase assay (Eurofins); format: biochemical; details: ATP 45 μM
# T1 construct: purchased Eurofins, Dundee, Scotland
# Description: (§1) Enzymatic biochemical activities were evaluated in radiometric protein kinase assays (Eurofins, Dundee, Scotland). Kinases are incubated with buffer, substrate and [γ-^33P]-ATP (specific activity approx. 500 cpm/pmol, concentration as required). The reaction is initiated by the addition of the MgATP mix. After incubation for 40 minutes at room temperature, the reaction is stopped by the addition of 3% phosphoric acid solution. 10 μL of the reaction is then spotted onto a P30 filtermat and washed three times for 5 minutes in 75 mM phosphoric acid and once in methanol prior to drying and scintillation counting. All compounds are prepared to 50x final assay concentration in 100% DMSO. Positive control wells contain all components of the reaction with 2% DMSO. Blank wells contain all components of the reaction, with a reference inhibitor replacing the compound of interest. Each kinase is assigned a standard assay concentration of ATP within 20 μM of its apparent Km. Compounds were screened at 1 μM in duplicate or tested at 10 concentrations at half log dilution starting from 10 μM in singlicate. Dose response curves were fitted with four parameter logistic curve to obtain IC50 values. […]
# (§2) Staurosporine is used as reference for all tested enzymes except for SRPK3 (reference inhibitor: K-252a. Nocardiopsis sp), NEK2 (reference inhibitor: […]), and CK2, CK2α2, MAPK1, MAPK2 (reference inhibitor: PKR Inhibitor). See Table 1 below for additional details.
# SRPK2 (h) = target: T2, SRPK2 (h) (Homo sapiens, UniProt P78362); test: Radiometric protein kinase assay (Eurofins); format: biochemical; details: ATP 10 μM
# T2 construct: purchased Eurofins, Dundee, Scotland
# Description: as §1, §2
# CLK3(h) = target: T3, CLK3(h) (Homo sapiens, UniProt P49761); test: Radiometric protein kinase assay (Eurofins); format: biochemical; details: ATP 90 μM
# T3 construct: purchased Eurofins, Dundee, Scotland
# Description: as §1, §2
# GSK3α(h) = target: T4, GSK3α(h) (Homo sapiens, UniProt P49840); test: Radiometric protein kinase assay (Eurofins); format: biochemical; details: ATP 10 μM
# T4 construct: purchased Eurofins, Dundee, Scotland
# Description: as §1, §2
# CK2 (h) = target: T5, CK2 (h) (Homo sapiens, UniProt P68400); test: Radiometric protein kinase assay (Eurofins); format: biochemical; details: ATP 10 μM
# T5 construct: purchased Eurofins, Dundee, Scotland
# Description: as §1, §2
# CLK4(h) = target: T6, CLK4(h) (Homo sapiens, UniProt Q9HAZ1); test: Radiometric protein kinase assay (Eurofins); format: biochemical; details: ATP 10 μM
# T6 construct: purchased Eurofins, Dundee, Scotland
# Description: as §1, §2
# SRPK1(h) = target: T7, SRPK1(h) (Homo sapiens, UniProt Q96SB4); test: Radiometric protein kinase assay (Eurofins); format: biochemical; details: ATP 10 μM
# T7 construct: purchased Eurofins, Dundee, Scotland
# Description: as §1, §2
# AKT3 = target: T8, AKT3 (Homo sapiens, UniProt Q9Y243); test: Radiometric protein kinase assay (Eurofins); format: biochemical; details: ATP 45 μM
# T8 construct: purchased Eurofins, Dundee, Scotland
# Description: as §1, §2
# DYRK1B (h) = target: T9, DYRK1B (h) (Homo sapiens, UniProt Q9Y463); test: Radiometric protein kinase assay (Eurofins); format: biochemical; details: ATP 45 μM
# T9 construct: purchased Eurofins, Dundee, Scotland
# Description: as §1, §2
# DYRK2 (h) = target: T10, DYRK2 (h) (Homo sapiens, UniProt Q92630); test: Radiometric protein kinase assay (Eurofins); format: biochemical; details: ATP 15 μM
# T10 construct: purchased Eurofins, Dundee, Scotland
# T10 sequence (Q92630 1-601): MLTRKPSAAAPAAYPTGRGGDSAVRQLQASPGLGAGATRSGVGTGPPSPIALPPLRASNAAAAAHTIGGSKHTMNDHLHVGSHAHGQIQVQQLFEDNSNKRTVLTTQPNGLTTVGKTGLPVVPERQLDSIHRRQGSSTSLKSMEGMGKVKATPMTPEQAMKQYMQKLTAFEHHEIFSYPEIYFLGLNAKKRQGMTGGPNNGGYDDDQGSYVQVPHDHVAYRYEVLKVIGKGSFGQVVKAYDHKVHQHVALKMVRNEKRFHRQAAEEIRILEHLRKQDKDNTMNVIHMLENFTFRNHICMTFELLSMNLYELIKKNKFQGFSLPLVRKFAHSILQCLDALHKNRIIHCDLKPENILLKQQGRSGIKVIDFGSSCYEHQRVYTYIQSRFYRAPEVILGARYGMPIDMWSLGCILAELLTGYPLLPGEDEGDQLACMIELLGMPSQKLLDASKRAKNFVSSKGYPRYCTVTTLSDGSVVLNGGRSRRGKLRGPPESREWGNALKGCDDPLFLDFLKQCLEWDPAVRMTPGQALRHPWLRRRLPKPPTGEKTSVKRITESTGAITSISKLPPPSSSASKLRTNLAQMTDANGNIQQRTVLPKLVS
# Description: as §1, §2
# CK2α2 (h) = target: T11, CK2α2 (h) (Homo sapiens, UniProt P19784); test: Radiometric protein kinase assay (Eurofins); format: biochemical; details: ATP 10 μM; read-out: CK2a2 IC50
# T11 construct: purchased Eurofins, Dundee, Scotland
# Description: as §1, §2
# CLK1(h) = target: T12, CLK1(h) (Homo sapiens, UniProt P49759); test: Radiometric protein kinase assay (Eurofins); format: biochemical; details: ATP 10 μM
# T12 construct: purchased Eurofins, Dundee, Scotland
# Description: as §1, §2
# SRPK3 (h) = target: T13, SRPK3 (h) (Homo sapiens, UniProt Q9UPE1); test: Radiometric protein kinase assay (Eurofins); format: biochemical; details: ATP 15 μM
# T13 construct: purchased Eurofins, Dundee, Scotland
# Description: as §1, §2
# MAPK1 (h) = target: T14, MAPK1 (h) (Homo sapiens, UniProt P27361); test: Radiometric protein kinase assay (Eurofins); format: biochemical
# T14 construct: purchased Eurofins, Dundee, Scotland
# Description: as §1, §2
# MAPK2 (h) = target: T15, MAPK2 (h) (Homo sapiens, UniProt P28482); test: Radiometric protein kinase assay (Eurofins); format: biochemical; details: ATP 155 μM
# T15 construct: purchased Eurofins, Dundee, Scotland
# Description: as §1, §2
# [1] = tested on: triple-exon skipping of MDM2 pre-mRNA in SK-MEL-2/Luc-MDM2 cells; test: TESLR (Triple Exon Skipping Luciferase Reporter) dose response; details: for EC50: read-out: TESLR EC50; for TESLR Maximum fold change: 4 hours
# Description: SK-MEL-2/MDM2-Luc stable cells were cultured in MEM medium with Earle's salts and L-glutamine containing 1 mM sodium pyruvate, 10% FCS and 10 mM Hepes and plated at a density of 10,000/well in 96-well plates and incubated overnight at 37°C in 5% CO2. The following day, cells were treated with serial dilutions of compounds for 4 hrs, ONE-Glo reagents (Promega) were added to measure the luciferase activity on an EnVision plate reader. SD6 and 0.5% DMSO were used as positive and negative controls, respectively. Relative luminescent units were plotted against corresponding drug concentrations and fitted with a standard four parameter sigmoidal curve with GraphPad Prism.
# The TESLR assay in SK-MEL-2/Luc-MDM2 cells with 4 hour treatment. SK-MEL-2/Luc-MDM2 stable cells were plated at a density of 20,000 cells/well in 96-well plates and incubated overnight at 37°C in 5% CO2. The following day, cells were treated with either 0.5% DMSO or serial dilution of hits identified from the library screen in 0.5% DMSO for 4 hours. ONE-Glo™ EX reagent (Promega) was added to measure the luciferase activity using an EnVision plate reader. Relative luminescent units were plotted against corresponding drug concentrations and fitted with a standard four parameter sigmoidal curve with GraphPad Prism.
# SK-MEL-2/Luc-MDM2 stable cells were plated at a density of 20,000 cells/well in 96-well plates and incubated overnight at 37°C in 5% CO2. The following day, cells were treated with serial dilutions of the indicated compounds for 4 hours and ONE-Glo™ EX reagents (Promega) were added to measure the luciferase activity.
# SF3B1 = target: T16, SF3B1 (Homo sapiens, UniProt O75533+Q7RTV0); test: Competitive antagonist assay (TESLR in the presence of SD6 or hit compound); format: cell-based; details: 6 μM compound for one hour, then serial dilutions of sudemycinol C for another 4 hours
# T16 construct: endogenous in cells
# Description: SK-MEL-2/Luc-MDM2 stable cells were plated at a density of 20,000 cells/well in 96-well plates and incubated overnight at 37°C in 5% CO2.[27, 28] The following day, cells were treated with 14 analogs using serial dilution for one hour. The list of compounds screened as potential TESLR antagonists are show in SI file. After one-hour pre-treatment, 4 μM of SD6 were added to the pre-treated cells for another 4 hours. Either 0.5% DMSO or serial dilutions of SD6 were used to treat cells for 4 hours as controls. At the end of incubation time, ONE-Glo™ EX reagents (Promega) were added to measure the luciferase activity. […]
# Fig 6 Competitive antagonist assay. (Left Panel) The assay that identified two antagonists of SD6 activity in the TESLR screen, which are useful for the determination of SF3B1 binding. Relative luminescent units were plotted against corresponding drug concentrations and fitted with a standard four parameter sigmoidal curve with GraphPad Prism. (Right Panel) The structures of the antagonists and SD6. See SI for chemistry details.
# . SK-MEL-2/Luc-MDM2 stable cells were plated at a density of 20000/well in 96-well plates and incubated overnight at 37°C in 5% CO2. […]. After one-hour pre-treatment, serial dilutions of the sudemycinol C were added to the pre-treated cells for another 4 hours. […]. At the end of incubation time, ONE-Glo™ EX reagents (Promega) were added to measure the luciferase activity. […]. DR: dose response.
# [2] = tested on: MDM2 pre-mRNA splicing in Rh18 cells; test: RT-PCR confirmation of splicing changes, MDM2; format: cell-based; details: 4 h, SD6 10 μM, compound 1 10 μM, compound 2 5 μM, compound 3 10 μM
# Description: RH-18 cells were cultured in RPMI 1640 medium containing 10% FCS. Cells are all maintained in humidified incubator with 5% CO2 at 37°C. Rh18 cells were exposed to 0.5% DMSO or SD6 10 μM, Cpd1 10 μM, Cpd2 5 μM or Cpd3 10 μM for 4 h. Total RNA was extracted and converted to cDNA. PCR was performed using NEB Q5 Master Mix and specific primers listed below (Table 2) according to the manufacturer’s instruction and standard PCR protocols: 50 ng cDNA and 30 μl of the final reaction volume was used. PCR products were subjected to 3% agarose gel electrophoresis.
# AS patterns were identified with compound treatment for MDM2 and RBM39 transcripts. Ubiquitin (UBQ) transcripts were used as a control since these are not spliced. […] Rh18 cells were treated with either DMSO control or compounds for 4 h. Total RNA was extracted and converted to cDNA. PCR was performed using corresponding primers and PCR products were subjected to 3% agarose gel electrophoresis.
# CDK2/cyclinA (h) = target: T17, CDK2/cyclinA (h) (Homo sapiens, UniProt P24941); test: Radiometric protein kinase assay (Eurofins); format: biochemical; details: ATP 45 μM
# T17 construct: purchased Eurofins, Dundee, Scotland
# Description: Enzymatic biochemical activities were evaluated in radiometric protein kinase assays (Eurofins, Dundee, Scotland). Kinases are incubated with buffer, substrate and [γ-^33P]-ATP (specific activity approx. 500 cpm/pmol, concentration as required). The reaction is initiated by the addition of the MgATP mix. After incubation for 40 minutes at room temperature, the reaction is stopped by the addition of 3% phosphoric acid solution. 10 μL of the reaction is then spotted onto a P30 filtermat and washed three times for 5 minutes in 75 mM phosphoric acid and once in methanol prior to drying and scintillation counting. All compounds are prepared to 50x final assay concentration in 100% DMSO. Positive control wells contain all components of the reaction with 2% DMSO. Blank wells contain all components of the reaction, with a reference inhibitor replacing the compound of interest. […] Compounds were screened at 1 μM in duplicate or tested at 10 concentrations at half log dilution starting from 10 μM in singlicate. Dose response curves were fitted with four parameter logistic curve to obtain IC50 values.
# phosphorylation of SF3B1 = test: Western blot of nuclear extracts, phosphor-SF3B1; details: 4 h
# Description: (§3) HCT116 cells were seeded at 3 million cells per 100 mm culture plate. The next day cells were treated with 5 μM or 10 μM of each compound for 4h and 8h. […] The pellet was snap frozen on dry ice and then thawed and spun at 12K rpm for 5 min, 4C. The supernatant was collected (nuclear extract) and protein concentrations determined using BCA Protein Assay Kit. […] The proteins were transferred to PVDF membrane using a wet transfer system. […] After the secondary antibody incubation, membranes were washed 4X with PBS containing 0.1% Tween-20 and 1X with PBS before imaging using the Li-Cor Odyssey imaging system.
# (§4) Lanes 6 to 10 are nuclear extracts from Rh18 cells.
# [3] = tested on: phosphorylation of SR proteins; test: Western blot of nuclear extracts, phosphor-SR proteins; details: HCT116 and Rh18 cells, 4 h; SD6 10 μM, compound 1 10 μM, compound 2 5 μM, compound 3 10 μM
# Description: as §3, §4
# [4] = SK-MEL-2/Luc-MDM2 cells, 4 hour treatment, luciferase activity
# [5] = SK-MEL-2/Luc-MDM2 cells, luciferase activity
# T11 sequence (P19784 whole entry): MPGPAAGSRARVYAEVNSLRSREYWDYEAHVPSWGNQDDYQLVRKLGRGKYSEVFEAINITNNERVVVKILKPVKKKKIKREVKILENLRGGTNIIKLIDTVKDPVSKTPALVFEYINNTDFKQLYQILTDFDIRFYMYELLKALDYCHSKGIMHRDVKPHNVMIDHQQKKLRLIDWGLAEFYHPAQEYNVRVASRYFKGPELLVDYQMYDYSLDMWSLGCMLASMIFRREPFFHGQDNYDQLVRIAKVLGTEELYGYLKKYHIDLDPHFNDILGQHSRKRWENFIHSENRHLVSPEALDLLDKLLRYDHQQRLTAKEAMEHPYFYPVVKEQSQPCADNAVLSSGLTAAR
# T3 sequence (P49761 whole entry): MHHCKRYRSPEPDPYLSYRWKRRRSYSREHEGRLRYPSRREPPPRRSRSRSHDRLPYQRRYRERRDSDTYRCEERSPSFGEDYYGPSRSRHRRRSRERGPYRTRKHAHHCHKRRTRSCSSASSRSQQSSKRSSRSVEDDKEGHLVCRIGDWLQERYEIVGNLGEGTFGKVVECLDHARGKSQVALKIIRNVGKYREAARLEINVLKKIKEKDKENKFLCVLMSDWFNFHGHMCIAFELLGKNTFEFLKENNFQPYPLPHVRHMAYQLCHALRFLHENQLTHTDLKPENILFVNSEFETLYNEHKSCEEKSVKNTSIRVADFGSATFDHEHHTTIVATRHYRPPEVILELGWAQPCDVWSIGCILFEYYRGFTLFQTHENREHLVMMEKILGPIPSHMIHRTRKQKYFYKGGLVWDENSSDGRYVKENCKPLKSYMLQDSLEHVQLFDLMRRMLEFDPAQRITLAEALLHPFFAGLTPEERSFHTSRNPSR
# T13 sequence (Q9UPE1 whole entry): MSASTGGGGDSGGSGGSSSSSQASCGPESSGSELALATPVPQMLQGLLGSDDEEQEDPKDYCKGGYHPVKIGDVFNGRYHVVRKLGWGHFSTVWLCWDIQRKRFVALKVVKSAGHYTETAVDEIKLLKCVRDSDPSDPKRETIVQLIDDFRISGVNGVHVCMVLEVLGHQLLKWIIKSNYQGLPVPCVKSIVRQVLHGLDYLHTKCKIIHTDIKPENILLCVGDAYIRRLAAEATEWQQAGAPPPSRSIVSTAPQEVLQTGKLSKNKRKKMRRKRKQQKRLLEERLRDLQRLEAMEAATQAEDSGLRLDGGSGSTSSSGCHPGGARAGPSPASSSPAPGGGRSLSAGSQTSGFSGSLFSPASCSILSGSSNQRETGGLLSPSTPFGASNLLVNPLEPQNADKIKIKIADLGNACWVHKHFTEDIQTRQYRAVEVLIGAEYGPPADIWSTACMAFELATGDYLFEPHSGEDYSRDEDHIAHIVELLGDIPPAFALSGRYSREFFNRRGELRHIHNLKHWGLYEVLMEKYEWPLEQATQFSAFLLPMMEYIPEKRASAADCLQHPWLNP
# T2 sequence (P78362 whole entry): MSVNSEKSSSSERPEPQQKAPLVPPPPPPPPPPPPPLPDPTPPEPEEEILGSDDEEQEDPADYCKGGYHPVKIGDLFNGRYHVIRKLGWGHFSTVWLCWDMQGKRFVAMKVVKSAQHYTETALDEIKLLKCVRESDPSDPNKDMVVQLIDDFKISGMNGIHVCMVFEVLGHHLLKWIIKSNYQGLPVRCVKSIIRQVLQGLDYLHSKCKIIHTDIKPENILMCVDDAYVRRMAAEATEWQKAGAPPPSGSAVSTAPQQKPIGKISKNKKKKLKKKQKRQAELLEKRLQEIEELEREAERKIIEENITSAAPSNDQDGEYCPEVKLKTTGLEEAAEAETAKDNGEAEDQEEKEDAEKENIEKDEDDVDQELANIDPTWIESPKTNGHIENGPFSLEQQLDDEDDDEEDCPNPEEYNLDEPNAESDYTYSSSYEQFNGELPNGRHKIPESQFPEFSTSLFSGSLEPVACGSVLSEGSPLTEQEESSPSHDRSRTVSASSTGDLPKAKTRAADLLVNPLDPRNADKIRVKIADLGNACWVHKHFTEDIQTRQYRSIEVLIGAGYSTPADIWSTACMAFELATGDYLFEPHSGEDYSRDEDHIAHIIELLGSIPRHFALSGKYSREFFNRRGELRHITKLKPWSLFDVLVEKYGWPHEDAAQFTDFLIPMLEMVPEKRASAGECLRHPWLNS
# T4 sequence (P49840 whole entry): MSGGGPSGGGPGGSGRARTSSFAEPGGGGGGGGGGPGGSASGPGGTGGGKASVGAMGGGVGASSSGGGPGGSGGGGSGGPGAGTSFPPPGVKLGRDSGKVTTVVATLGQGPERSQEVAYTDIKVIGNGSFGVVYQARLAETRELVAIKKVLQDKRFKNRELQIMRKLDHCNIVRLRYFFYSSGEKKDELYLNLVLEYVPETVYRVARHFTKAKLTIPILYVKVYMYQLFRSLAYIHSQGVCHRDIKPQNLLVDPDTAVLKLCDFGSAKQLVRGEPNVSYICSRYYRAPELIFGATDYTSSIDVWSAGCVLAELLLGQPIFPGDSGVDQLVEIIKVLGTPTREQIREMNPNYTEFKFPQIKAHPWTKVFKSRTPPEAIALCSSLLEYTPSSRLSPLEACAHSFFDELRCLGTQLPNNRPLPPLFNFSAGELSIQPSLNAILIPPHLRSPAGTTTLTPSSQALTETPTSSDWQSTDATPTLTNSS
# T5 sequence (P68400 whole entry): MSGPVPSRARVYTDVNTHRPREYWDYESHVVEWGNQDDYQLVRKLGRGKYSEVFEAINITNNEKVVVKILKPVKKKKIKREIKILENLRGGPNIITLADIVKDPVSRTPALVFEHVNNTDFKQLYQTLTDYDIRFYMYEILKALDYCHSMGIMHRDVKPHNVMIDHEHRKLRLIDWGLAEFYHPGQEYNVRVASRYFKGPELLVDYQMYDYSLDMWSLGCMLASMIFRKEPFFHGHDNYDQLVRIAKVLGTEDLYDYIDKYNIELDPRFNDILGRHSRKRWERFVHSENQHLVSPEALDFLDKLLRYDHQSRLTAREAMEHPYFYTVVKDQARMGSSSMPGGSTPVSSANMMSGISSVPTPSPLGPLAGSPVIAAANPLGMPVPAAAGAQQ
# T5 sequence (P67870 whole entry partner): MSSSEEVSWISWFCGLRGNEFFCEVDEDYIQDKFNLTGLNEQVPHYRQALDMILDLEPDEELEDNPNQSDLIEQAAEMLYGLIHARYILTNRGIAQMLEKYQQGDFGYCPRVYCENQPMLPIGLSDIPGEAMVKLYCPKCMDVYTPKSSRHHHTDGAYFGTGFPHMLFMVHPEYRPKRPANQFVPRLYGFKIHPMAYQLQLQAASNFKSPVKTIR
# T6 sequence (Q9HAZ1 whole entry): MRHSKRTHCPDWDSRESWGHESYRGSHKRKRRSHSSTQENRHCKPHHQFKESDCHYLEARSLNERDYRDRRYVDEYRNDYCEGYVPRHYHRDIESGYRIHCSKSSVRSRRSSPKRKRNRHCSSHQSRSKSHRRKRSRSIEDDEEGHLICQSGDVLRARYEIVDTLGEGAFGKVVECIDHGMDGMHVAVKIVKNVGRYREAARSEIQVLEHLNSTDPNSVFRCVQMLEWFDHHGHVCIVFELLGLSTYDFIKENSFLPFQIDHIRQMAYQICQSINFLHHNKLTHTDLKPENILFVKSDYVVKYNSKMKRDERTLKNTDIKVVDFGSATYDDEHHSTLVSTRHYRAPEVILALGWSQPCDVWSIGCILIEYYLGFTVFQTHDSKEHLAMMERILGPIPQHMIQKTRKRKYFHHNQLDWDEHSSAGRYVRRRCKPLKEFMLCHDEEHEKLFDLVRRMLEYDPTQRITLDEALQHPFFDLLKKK
# T15 sequence (P28482 whole entry): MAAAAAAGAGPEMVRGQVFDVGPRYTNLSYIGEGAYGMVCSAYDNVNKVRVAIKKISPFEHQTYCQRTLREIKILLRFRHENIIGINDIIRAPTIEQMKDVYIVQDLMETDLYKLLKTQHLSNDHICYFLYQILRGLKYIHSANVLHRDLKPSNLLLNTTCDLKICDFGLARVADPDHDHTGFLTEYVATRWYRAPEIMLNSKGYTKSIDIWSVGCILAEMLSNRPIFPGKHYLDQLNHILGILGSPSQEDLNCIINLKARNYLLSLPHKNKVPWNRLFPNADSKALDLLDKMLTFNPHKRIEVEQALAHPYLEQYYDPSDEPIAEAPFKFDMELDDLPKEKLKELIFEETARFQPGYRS
# T8 sequence (Q9Y243 whole entry): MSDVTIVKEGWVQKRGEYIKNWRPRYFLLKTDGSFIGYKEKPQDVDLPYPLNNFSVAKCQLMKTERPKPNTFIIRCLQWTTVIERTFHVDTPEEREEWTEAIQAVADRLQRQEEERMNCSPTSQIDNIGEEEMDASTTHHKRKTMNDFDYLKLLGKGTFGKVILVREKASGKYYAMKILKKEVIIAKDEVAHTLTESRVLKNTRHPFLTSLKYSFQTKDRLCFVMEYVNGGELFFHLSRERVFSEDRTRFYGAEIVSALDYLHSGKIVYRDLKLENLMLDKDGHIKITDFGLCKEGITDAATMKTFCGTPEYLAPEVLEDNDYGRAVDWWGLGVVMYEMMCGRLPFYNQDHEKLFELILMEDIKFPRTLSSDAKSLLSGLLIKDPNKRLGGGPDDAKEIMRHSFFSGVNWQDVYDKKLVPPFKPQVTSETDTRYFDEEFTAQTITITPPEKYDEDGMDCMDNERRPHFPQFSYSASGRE
# T14 sequence (P27361 whole entry): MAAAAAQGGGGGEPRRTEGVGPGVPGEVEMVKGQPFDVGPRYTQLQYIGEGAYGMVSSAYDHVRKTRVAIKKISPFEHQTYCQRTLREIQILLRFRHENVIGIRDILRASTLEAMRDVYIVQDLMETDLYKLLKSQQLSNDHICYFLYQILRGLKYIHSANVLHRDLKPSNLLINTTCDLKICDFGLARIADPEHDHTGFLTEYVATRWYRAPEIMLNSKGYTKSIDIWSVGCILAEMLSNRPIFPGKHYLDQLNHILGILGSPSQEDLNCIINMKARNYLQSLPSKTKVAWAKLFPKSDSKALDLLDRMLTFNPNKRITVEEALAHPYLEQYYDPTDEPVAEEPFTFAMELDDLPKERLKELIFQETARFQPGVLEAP
smiles,measurement,setting,value
"CN(c1ncccc1CNc1nc(Nc2ccc3c(c2)CC(=O)N3)ncc1C(F)(F)F)S(C)(=O)=O [Compound 3, PF-562271]",DYRK1A IC50,DYRK1A(h),NA (NA: Not Active (less than 50% inhibition at 1 micromolar))
same,SRPK2 IC50,SRPK2 (h),NA (NA: Not Active (less than 50% inhibition at 1 micromolar))
same,CLK3 IC50,CLK3(h),NA (NA: Not Active (less than 50% inhibition at 1 micromolar))
same,IC50,GSK3α(h),221 nM
same,CK2 IC50,CK2 (h),NA (NA: Not Active (less than 50% inhibition at 1 micromolar))
same,IC50,CLK4(h),155 nM
same,SRPK1 IC50,SRPK1(h),NA (NA: Not Active (less than 50% inhibition at 1 micromolar))
same,AKT3 IC50,AKT3,NA (NA: Not Active (less than 50% inhibition at 1 micromolar))
same,DYRK1B IC50,DYRK1B (h),NA (NA: Not Active (less than 50% inhibition at 1 micromolar))
same,DYRK2 IC50,DYRK2 (h),NA (NA: Not Active (less than 50% inhibition at 1 micromolar))
same,IC50,CK2α2 (h),374 nM
same,IC50,CLK1(h),141 nM
same,SRPK3 IC50,SRPK3 (h),NA (NA: Not Active (less than 50% inhibition at 1 micromolar))
same,MAPK1 IC50,MAPK1 (h),NA (NA: Not Active (less than 50% inhibition at 1 micromolar))
same,IC50,MAPK2 (h),863 nM
same,EC50,[1]; [4],5560 nM
same,Antagonism of the compound's TESLR activity by sudemycinol C,SF3B1,did not antagonize
same,MDM2 alternative splicing (AS) pattern by RT-PCR,[2],dominant MDM2 transcript (the same size as the DMSO control) and an AS isoform of 785 bp
same,IC50,CDK2/cyclinA (h),203 nM
same,Effect on phosphorylation of SF3B1 (immunoblot),"phosphorylation of SF3B1; HCT116 cells, 10 μM",inhibited the phosphorylation of SF3B1 protein in HCT116 cells
COc1ncc2cc(C(=O)Nc3cc(C(=O)NCc4cccc(Cl)c4)ccc3Cl)c(=O)[nH]c2n1 [Mirk-IN-1],TESLR Maximum fold change,[1]; [5],30.7
same,EC50,[1]; [4],15000 nM
"CNC(=O)OC(C)C=CC(=O)NC1CCC(CC=C(C)C=CC2CC3(CO3)CC(C)(C)O2)CC1 (stereo not shown) [SD6, sudemycin D6]",Effect on phosphorylation of SR proteins (immunoblot),[3],did not inhibit the phosphorylation of SR proteins
same,EC50,"[1]; Homo sapiens, SK-MEL-2, 4 h",862 nM
same,TESLR Maximum fold change,[1]; [5],28.3
same,MDM2 alternative splicing (AS) pattern by RT-PCR,[2],dominant AS isoform at size of 1019 bp
same,Effect on phosphorylation of SF3B1 (immunoblot),"phosphorylation of SF3B1; HCT116 and Rh18 cells, SD6 10 μM, compound 1 10 μM, compound 2 5 μM",did inhibit the phosphorylation of SF3B1
CC(C)(C)c1cnc(CSc2cnc(NC(=O)C3CCNCC3)s2)o1 [SNS-032],IC50,"[1]; Homo sapiens, SK-MEL-2, 4 h, read-out: TESLR IC50 in inducing triple exon skipping",> 10000 nM
